# Experimental data taken from patent US9150489B2, “1-(2-fluorobiphenyl-4-yl)-alkyl carboxylic acid derivatives for the therapy of transthyretin amyloidosis” (CHIESI FARMACEUTICI S.p.A., priority 2010, dated 2015).
# Key:
# human wild-type TTR = molecular target: T1, human wild-type TTR (Homo sapiens, UniProt P02766); assay: In vitro fibrillogenesis by wild-type TTR at acidic pH (turbidity at 400 nm); assay type: biochemical; conditions: 3.6 μM TTR, 10.8 μM inhibitor, pH 4.4, 37° C., average of two measurements; for inhibition at 10.8 µM: read-out: inhibitory effect on wild-type TTR fibrillogenesis
# T1 construct: made in house; host or cells: E. coli
# Text: (§1) The aim of this study was to evaluate the inhibitory effect of the same representative compounds of the inventions tested in Example 1 in vitro fibrillogenesis by human wild-type TTR and two major amyloidogenic variants (V30M and V 122I) at moderately acidic pH, in comparison to reference compounds. To highlight the inhibitory effect of CHF 5074 and CHF4795 versus diflunisal and tafamidis on in vitro fibrillogenesis by wild-type, V30M and V122I TTR at moderately acid pH, we followed the kinetics of fibril formation by these proteins, by monitoring the increase in turbidity at 400 nm as reported in Johnson et al., 2008, J. Med. Chem., 51:260 (which is incorporated herein by reference), upon incubation with TTR. The final concentration of TTR was of 3.6 μM, which is close to its physiological plasma concentration, with fibrillogenesis inhibitors at a final concentration of 10.8 μM. According to the procedure adopted for other inhibitors of fibrillogenesis (Johnson et al., 2008, J. Med. Chem., 51:260), TTR was incubated with each inhibitor at neutral pH (10 mM Na phosphate buffer, pH 7.2, 100 mM KCl, 1 mM EDTA) for 30 minutes at ambient temperature, prior to the incubation of the protein at acidic pH (200 mM Na Acetate buffer, pH 4.4, 100 mM KCl, 1 mM EDTA) at 37° C. in order to promote fibrillogenesis. Inhibitory effect data represent the average of two independent measurements for each compound.
# V 122I TTR = molecular target: T2, V 122I TTR (Homo sapiens, UniProt P02766, V142I); assay: In vitro fibrillogenesis by V122I TTR at acidic pH (turbidity at 400 nm); assay type: biochemical; conditions: 3.6 μM TTR, 10.8 μM inhibitor, pH 4.4, 37° C., average of two measurements; for inhibition at 10.8 µM: read-out: inhibitory effect on V 122I TTR fibrillogenesis
# T2 construct: made in house; host or cells: E. coli
# Text: as §1
# V30M TTR = molecular target: T3, V30M TTR (Homo sapiens, UniProt P02766, V50M); assay: In vitro fibrillogenesis by V30M TTR at acidic pH (turbidity at 400 nm); assay type: biochemical; conditions: 3.6 μM TTR, 10.8 μM inhibitor, pH 4.4, 37° C., average of two measurements
# T3 construct: made in house; host or cells: E. coli
# Text: as §1
# [1] = molecular target: T4, wild-type human transthyretin (TTR) (Homo sapiens, UniProt P02766); assay: Competitive binding to wild-type human TTR by fluorometric techniques; conditions: 20° C.; for emission peak of TTR-bound ANS in the presence of the compound / emission peak of TTR-bound tafamidis in the presence of the compound / emission peak of TTR-bound trans-resveratrol in the presence of the compound: 10 μM compound; for emission peak of TTR-bound ANS in the presence of the compound: 10 μM ANS, excitation 360 nm; for emission peak of TTR-bound ANS in the presence of the compound / emission peak of TTR-bound trans-resveratrol in the presence of the compound: 5 μM TTR; for emission peak of TTR-bound tafamidis in the presence of the compound: 10 μM tafamidis, 10 μM TTR; for emission peak of TTR-bound tafamidis in the presence of the compound / emission peak of TTR-bound trans-resveratrol in the presence of the compound: excitation 320 nm; for emission peak of TTR-bound trans-resveratrol in the presence of the compound: 10 μM trans-resveratrol; for relative binding affinity to TTR (competitive binding assays taken together): 50 mM Na phosphate buffer, pH 7.2, 150 mM NaCl
# T4 construct: made in house; host or cells: E. coli
# [2] = molecular target: T4, wild-type human transthyretin (TTR); conditions: cited from earlier work
structure (smiles),measurement,setting,value
"O=C(O)c1cc(-c2ccc(F)cc2F)ccc1O [diflunisal, reference compound]",inhibition at 10.8 µM,human wild-type TTR,~75%
same,inhibition at 10.8 µM,V 122I TTR,~92%
same,inhibitory effect on V30M TTR fibrillogenesis,V30M TTR,inhibitory effects similar to those observed with wild-type TTR
"CC(C)(C(=O)O)c1ccc(-c2cc(Cl)cc(Cl)c2)c(F)c1 [CHF 4795, 2-methyl-(3′,5′-dichloro-2-fluoro-biphenyl-4-yl) propionic acid]",inhibitory effect on wild-type TTR fibrillogenesis,human wild-type TTR,about 75%
same,inhibitory effect on V 122I TTR fibrillogenesis,V 122I TTR,about 92%
same,emission peak of TTR-bound ANS in the presence of the compound,[1]; pH 7.2,nearly completely abolished
same,emission peak of TTR-bound tafamidis in the presence of the compound,[1]; pH 7.2,nearly completely shifted to that of unbound tafamidis
same,emission peak of TTR-bound trans-resveratrol in the presence of the compound,[1]; pH 7.2,nearly completely abolished
same,relative binding affinity to TTR (competitive binding assays taken together),[1],higher binding affinity to TTR as compared to trans-resveratrol
same,inhibitory effect on V30M TTR fibrillogenesis,V30M TTR,inhibitory effects similar to those observed with wild-type TTR
"O=S(=O)(O)c1cccc2cccc(Nc3ccccc3)c12 [ANS, 8-anilino-1-naphthalene sulfonate]",binding affinity for TTR (known property of the fluorescent probes),[2],relatively low binding affinity
"O=C(O)C1(c2ccc(-c3ccc(Cl)c(Cl)c3)c(F)c2)CC1 [CHF 5074, 1-(3′,4′-dichloro-2-fluorobiphenyl-4-yl)cyclopropanecarboxylic acid]",inhibition at 10.8 µM,human wild-type TTR,~75%
same,inhibition at 10.8 µM,V 122I TTR,~92%
same,emission peak of TTR-bound ANS in the presence of the compound,[1]; pH 7.2,nearly completely abolished
same,emission peak of TTR-bound tafamidis in the presence of the compound,[1]; pH 7.2,nearly completely shifted to that of unbound tafamidis
same,emission peak of TTR-bound trans-resveratrol in the presence of the compound,[1]; pH 7.2,nearly completely abolished
same,relative binding affinity to TTR (competitive binding assays taken together),[1],higher binding affinity to TTR as compared to trans-resveratrol
same,inhibitory effect on V30M TTR fibrillogenesis,V30M TTR,inhibitory effects similar to those observed with wild-type TTR
"O=C(O)c1ccc2nc(-c3cc(Cl)cc(Cl)c3)oc2c1 [tafamidis, 2-(3,5-dichlorophenyl)-1,3-benzoxazole-6-carboxylic acid, reference compound]",inhibition at 10.8 µM,human wild-type TTR,~75%
same,inhibition at 10.8 µM,V 122I TTR,~92%
same,inhibitory effect on V30M TTR fibrillogenesis,V30M TTR,inhibitory effects similar to those observed with wild-type TTR
"Oc1ccc(/C=C/c2cc(O)cc(O)c2)cc1 [trans-resveratrol, reference compound]",fluorescence emission of TTR-bound diflunisal exposed to equimolar compound,"[1]; 10 μM TTR-bound diflunisal, equimolar compound, excitation 340 nm, pH 7.2",a spectrum similar to that of TTR-bound trans-resveratrol rather than to that of TTR-bound diflunisal was obtained
same,binding affinity for TTR (known property of the fluorescent probes),[2],"high binding affinity, greater than that of thyroxine"
